# In patent publication US20130005721A1, “INDOLIZINE INHIBITORS OF 5-LIPOXYGENASE” (PANMIRA PHARMACEUTICALS, LLC, priority 2009, published 2013):
# Test system: human leukocytes (LTB4 production, calcium ionophore stimulated)
# Assay: Human Leukocyte LTB4 Inhibition Assay
# Format: cell-based
# Details: LTB4 by ELISA, read-out: LTB4 HLA IC50
# Procedure: Human Leukocyte LTB4 Inhibition Assay
# A non-limiting example of a human leukocyte inhibition assay is as follows; Blood was drawn from consenting human volunteers into heparanized tubes and 3% dextran 0.9% saline ⅓ rd volume added. After sedimentation of red blood cells a hypotonic lysis of remaining red blood cells was performed and leukocytes sedimented at 1200 rpm. The pellet was resuspended at 1.25×10^5 cells/ml and aliquoted into wells containing 1 μL 100% DMSO (vehicle) or 2.5 μL drug in 100% DMSO. Samples were incubated for 5 minutes at 37° C. and 2 μL calcium ionophore […] (from a 50 mM DMSO stock diluted just prior to the assay in Hanks balanced salt solution (Invitrogen)) to 1.25 mM) was added, solutions mixed and incubated for 30 minutes at 37° C. Samples were centrifuged at 1,200 rpm (−200×g) for 10 minutes at 4° C., plasma removed and a 1:4 dilution assayed for LTB4 concentration using ELISA (Assay Designs). Drug concentrations to achieve 50% inhibition (IC50's) of vehicle LTB4 were determined by nonlinear regression (Graphpad Prism) of % inhibition versus log drug concentration.
row,IC50 [nM],SMILES
1,< 300,"CCC(O)(c1cn(Cc2ccn3c(-c4ccc(F)cc4)c(C#N)cc3c2)nn1)C(F)(F)F (stereo not drawn) [Compound 1-22, 3-(4-Fluoro-phenyl)-7-[4-(1-hydroxy-1-trifluoromethyl-propyl)-[1,2,3]triazol-1-ylmethyl]-indolizine-2-carbonitrile]"
2,< 300,"CCC(O)(c1cn(Cc2ccn3c(-c4ccc(F)cc4)c(C(N)=O)cc3c2)nn1)C(F)(F)F (single isomer, unassigned) [Compound 1-10, 3-(4-Fluoro-phenyl)-7-[4-(1-hydroxy-1-trifluoromethyl-propyl)-[1,2,3]triazol-1-ylmethyl]-indolizine-2-carboxylic acid amide]"

# Same assay, conditions: Leukocyte, LTB4 by ELISA, read-out: LTB4 HLA IC50
row,IC50 [nM],SMILES
1,> 1000,"CCC(O)(c1cnc(Sc2ccn3cc(C(=O)O)cc3c2)s1)C(F)(F)F (stereo not drawn) [Compound 1-2, 7-[5-(1-Hydroxy-1-trifluoromethyl-propyl)-thiazol-2-ylsulfanyl]-indolizine-2-carboxylic acid]"
2,> 1000,"CCC(O)(c1cn(Cc2ccn3c(-c4cccnc4)c(C(N)=O)cc3c2)nn1)C(F)(F)F (stereo not drawn) [Compound 1-25, 7-[4-(1-Hydroxy-1-trifluoromethyl-propyl)-[1,2,3]triazol-1-ylmethyl]-3-pyridin-3-yl-indolizine-2-carboxylic acid amide]"
3,300 to 1000,"CCC(O)(c1cn(Cc2ccn3c(-c4cccc(S(C)(=O)=O)c4)c(C#N)cc3c2)nn1)C(F)(F)F (stereo not drawn) [Compound 1-49, 7-[4-(1-Hydroxy-1-trifluoromethyl-propyl)-[1,2,3]triazol-1-ylmethyl]-3-(3-methanesulfonyl-phenyl)-indolizine-2-carbonitrile]"
4,< 300,"CCC(O)(c1nnc(NCc2ccn3c(-c4ccc(F)cc4)c(C(N)=O)cc3c2)o1)C(F)(F)F (single isomer, unassigned) [Compound 1-20, 3-(4-Fluoro-phenyl)-7-{[5-(1-hydroxy-1-trifluoromethyl-propyl)-[1,3,4]oxadiazol-2-ylamino]-methyl}-indolizine-2-carboxylic acid amide]"
5,< 300,"CCOC(=O)c1cc2cc(Cn3cc(C(CC)(OC(=O)c4ccc([N+](=O)[O-])cc4)C(F)(F)F)nn3)ccn2c1 (single isomer, unassigned) [Compound 1-86, 7-{4-[1-(4-Nitro-benzoyloxy)-1-trifluoromethyl-propyl]-[1,2,3]triazol-1-ylmethyl}-indolizine-2-carboxylic acid ethyl ester]"
6,< 300,"CCC(O)(c1cn(Cc2ccn3c(C(C)C)c(C#N)cc3c2)nn1)C(F)(F)F (single isomer, unassigned) [Compound 1-81, 7-[4-(1-Hydroxy-1-trifluoromethyl-propyl)-[1,2,3]triazol-1-ylmethyl]-3-isopropyl-indolizine-2-carbonitrile]"
7,< 300,"CCC(O)(c1cn(Cc2ccn3c(-c4ccc(F)cc4)c(/C=C/C(=O)OC)cc3c2)nn1)C(F)(F)F (stereo not drawn) [Compound 1-39, (E)-3-{3-(4-Fluoro-phenyl)-7-[4-(1-hydroxy-1-trifluoromethyl-propyl)-[1,2,3]triazol-1-ylmethyl]-indolizin-2-yl}-acrylic acid methyl ester]"
8,> 1000,"CCOc1ccc(-c2c(C(N)=O)cc3cc(Cn4cc(C(O)(CC)C(F)(F)F)nn4)ccn23)cn1 (stereo not drawn) [Compound 1-58, 3-(6-Ethoxy-pyridin-3-yl)-7-[4-(1-hydroxy-1-trifluoromethyl-propyl)-[1,2,3]triazol-1-ylmethyl]-indolizine-2-carboxylic acid amide]"
9,< 300,"CCC(O)(c1cn(Cc2ccn3c(-c4ccc(F)cc4)c(COC)cc3c2)nn1)C(F)(F)F (stereo not drawn) [Compound 1-44, 1,1,1-Trifluoro-2-{1-[3-(4-fluoro-phenyl)-2-methoxymethyl-indolizin-7-ylmethyl]-1H-[1,2,3]triazol-4-yl}-butan-2-ol]"
10,> 1000,"CCC(O)(c1cn(Cc2ccn3c(-c4ccc(OC)nc4)c(C(N)=O)c(C(=O)C(F)(F)F)c3c2)nn1)C(F)(F)F (single isomer, unassigned) [Compound 1-82, 7-[4-(1-Hydroxy-1-trifluoromethyl-propyl)-[1,2,3]triazol-1-ylmethyl]-3-(6-methoxy-pyridin-3-yl)-1-(2,2,2-trifluoro-acetyl)-indolizine-2-carboxylic acid amide]"
11,300 to 1000,"CCNC(=O)c1cc2cc(Cn3cc(C(O)(CC)C(F)(F)F)nn3)ccn2c1-c1ccc(F)cc1 (stereo not drawn) [Compound 1-55, 3-(4-Fluoro-phenyl)-7-[4-(1-hydroxy-1-trifluoromethyl-propyl)-[1,2,3]triazol-1-ylmethyl]-indolizine-2-carboxylic acid ethylamide]"
12,> 1000,"CCC(O)(c1cn(Cc2ccn3c(Cl)c(C(N)=O)cc3c2)nn1)C(F)(F)F (single isomer, unassigned) [Compound 1-89, 3-Chloro-7-[4-(1-hydroxy-1-trifluoromethyl-propyl)-[1,2,3]triazol-1-ylmethyl]-indolizine-2-carboxylic acid amide]"
13,< 300,"CCC(O)(c1cn(Cc2ccn3c(-c4ccc(F)cc4)c(CO)cc3c2)nn1)C(F)(F)F (stereo not drawn) [Compound 1-30, 1,1,1-Trifluoro-2-{1-[3-(4-fluoro-phenyl)-2-hydroxymethyl-indolizin-7-ylmethyl]-1H-[1,2,3]triazol-4-yl}-butan-2-ol]"
14,> 1000,"CCC(O)(c1cn(Cc2ccn3c(-c4ccc(F)cc4)c(CNCCC(=O)O)cc3c2)nn1)C(F)(F)F (stereo not drawn) [Compound 1-40, 3-({3-(4-Fluoro-phenyl)-7-[4-(1-hydroxy-1-trifluoromethyl-propyl)-[1,2,3]triazol-1-ylmethyl]-indolizin-2-ylmethyl}-amino)-propionic acid]"
15,< 300,"CCOC(=O)c1cc2cc(Cn3cc(C(O)(CC)C(F)(F)F)nn3)ccn2c1-c1ccc(OC)nc1 (stereo not drawn) [Compound 1-36, 7-[4-(1-Hydroxy-1-trifluoromethyl-propyl)-[1,2,3]triazol-1-ylmethyl]-3-(6-methoxy-pyridin-3-yl)-indolizine-2-carboxylic acid ethyl ester]"
16,< 300,"CCC(O)(c1cn(Cc2ccn3c(-c4ccc(OC)nc4)c(C#N)cc3c2)nn1)C(F)(F)F (single isomer, unassigned) [Compound 1-79, 7-[4-(1-Hydroxy-1-trifluoromethyl-propyl)-[1,2,3]triazol-1-ylmethyl]-3-(6-methoxy-pyridin-3-yl)-indolizine-2-carbonitrile]"
17,300 to 1000,"CCC(O)(c1cn(Cc2ccn3c(-c4ccc(F)cc4)c(C(=O)O)cc3c2)nn1)C(F)(F)F (stereo not drawn) [Compound 1-5, 3-(4-Fluoro-phenyl)-7-[4-(1-hydroxy-1-trifluoromethyl-propyl)-[1,2,3]triazol-1-ylmethyl]-indolizine-2-carboxylic acid]"
18,< 300,"CCC(O)(c1cn(Cc2ccn3c(-c4ccc(F)cc4)c(C(C)(C)O)cc3c2)nn1)C(F)(F)F (stereo not drawn) [Compound 1-7, 1,1,1-Trifluoro-2-{1-[3-(4fluoro-phenyl)-2-(1-hydroxy-1-methyl-ethyl)-indolizin-7-ylmethyl]-1H-[1,2,3]triazol-4-yl}-butan-2-ol]"
19,< 300,"CCOC(=O)c1cc2cc(Cn3cc(C(O)(CC)C(F)(F)F)nn3)ccn2c1-c1ccc(F)cc1 (stereo not drawn) [Compound 1-4, 3-(4-Fluoro-phenyl)-7-[4-(1-hydroxy-1-trifluoromethyl-propyl)-[1,2,3]triazol-1-ylmethyl]-indolizine-2-carboxylic acid ethyl ester]"
20,< 300,"CCOC(=O)c1cc2cc(Cn3cc(C(O)(CC)C(F)(F)F)nn3)ccn2c1-c1ccc(F)nc1 (stereo not drawn) [Compound 1-29, 3-(6-Fluoro-pyridin-3-yl)-7-[4-(1-hydroxy-1-trifluoromethyl-propyl) [1,2,3]triazol-1-ylmethyl]-indolizine-2-carb oxylic acid ethyl ester]"
21,< 300,"CCOC(=O)c1nc2cc(Cn3cc(C(O)(CC)C(F)(F)F)nn3)ccn2c1-c1ccc(F)cc1 (stereo not drawn) [Compound 1-13, 3-(4-Fluoro-phenyl)-7-[4-(1-hydroxy-1-trifluoromethyl-propyl)-[1,2,3]triazol-1-ylmethyl]-imidazo[1,2-a]pyridine-2-carboxylic acid ethyl ester]"
22,< 300,"CCC(O)(c1nnc(NCc2ccn3c(-c4ccc(F)cc4)c(C(N)=O)cc3c2)o1)C(F)(F)F (stereo not drawn) [Compound 1-19, 3-(4-Fluoro-phenyl)-7-{[5-(1-hydroxy-1-trifluoromethyl-propyl)-[1,3,4]oxadiazol-2-ylamino]-methyl}-indolizine-2-carboxylic acid amide]"
23,> 1000,"CCC(O)(c1cn(Cc2ccn3c(-c4ccc(=O)n(C)c4)c(C(N)=O)cc3c2)nn1)C(F)(F)F (stereo not drawn) [Compound 1-68, 7-[4-(1-Hydroxy-1-trifluoromethyl-propyl)-[1,2,3]triazol-1-ylmethyl]-3-(1-methyl-6-oxo-1,6-dihydro-pyridin-3-yl)-indolizine-2-carboxylic acid amide]"
24,300 to 1000,"CCC(O)(c1cn(Cc2ccn3c(-c4ccc(F)cc4)c(CN4CCOCC4)cc3c2)nn1)C(F)(F)F (stereo not drawn) [Compound 1-38, 1,1,1-Trifluoro-2-{1-[3-(4-fluoro-phenyl)-2-morpholin-4-ylmethyl-indolizin-7-ylmethyl]-1H-[1,2,3]triazol-4-yl}-butan-2-ol]"
25,< 300,"CCC(O)(c1cn(Cc2ccn3c(-c4ccc(F)cc4)c(C#N)cc3c2)nn1)C(F)(F)F (stereo not drawn) [Compound 1-16, 3-(4-Fluoro-phenyl)-7-[4-(1-hydroxy-1-trifluoromethyl-propyl)-[1,2,3]triazol-1-ylmethyl]-indolizine-2-carbonitrile]"
